Laboratory results from patent US9731052B2, “Methods for stepwise deposition of silk fibroin coatings” (TRUSTEES OF TUFTS COLLEGE, priority 2005, dated 2017).

What was measured:
[1] = Compound release from multilayer silk coatings on glass slides in PBS; format: physicochemical; conditions: room temperature
Excerpt: (§1) This process was repeated according to the designated architectures in which the outmost layer was always silk layer. In this work, two different loading modalities were used in the release study for each compound, each with two different rinsing methods. UV-Vis absorbance spectra and a research quartz crystal microbalance (RQCM) were used for verifying the deposition.
The compound release from the multilayer coatings on glass microscope slides (25×75 mm on both sides) was investigated by incubating the slides in 5 ml PBS buffer solutions at room temperature with gentle shaking (60 rpm). At preset time intervals, 2 ml supernatant was sampled and 2 ml fresh PBS solution was then added to replenish the sample that was removed in order to maintain a constant volume. The supernatant was analyzed for the amount of released model compound using UV-vis spectroscopy for optical densities at a specific wavelength for each compound (562 nm for Rhodamine B, 609 nm for Even Blue, and 358 nm for Azoalbumin) and compared to a standard curve generated for each compound. The amount of released compound in each sample was summed with the amounts at each previous time point and divided by the total amount to obtain cumulative release value. Experiments were run in triplicates (n=3). Data in the graphs represent the average±standard deviation.

[2] = Real-time adsorption of model compounds monitored by RQCM; format: physicochemical; conditions: in situ RQCM; for adsorption (saturation) that took place within the first 2 min: silk pre-coated gold electrode
Excerpt: as §1
The real-time adsorption of model compounds on silk pre-coated gold electrode surface was monitored using research quartz crystal microbalance (RQCM).

Compound: Cc1cc(-c2ccc(/N=N/c3ccc4c(S(=O)(=O)[O-])cc(S(=O)(=O)[O-])c(N)c4c3O)c(C)c2)ccc1/N=N/c1ccc2c(S(=O)(=O)[O-])cc(S(=O)(=O)[O-])c(N)c2c1O.[Na+].[Na+].[Na+].[Na+] [Even Blue]
- initial burst, compared with Rhodamine B [1]: no noticeable difference
- adsorption (saturation) that took place within the first 2 min [2]: ~92%

Compound: Azoalbumin: model molecule representing therapeutically relevant proteins
- adsorption (saturation) that took place within the first 2 min [2]: ~82%

Compound: CCN(CC)c1ccc2c(-c3ccccc3C(=O)O)c3ccc(=[N+](CC)CC)cc-3oc2c1 [Rhodamine B]
- adsorption on silk coating, compared with Even Blue [2]: higher adsorption
- adsorption (saturation) that took place within the first 2 min [2]: ~92%
